Settings: 101.33 kPa, Liquid, Vibrating tube method

CCOS(=O)(=O)[O-].CCn1cc[n+](C)c1 [1-ethyl-3-methylimidazolium ethyl sulfate]
Settings | mass density [kg/m3]
278.15 K | 1250.01
283.15 K | 1246.61
288.15 K | 1243.14
293.15 K | 1239.68
298.15 K | 1236.24
303.15 K | 1232.82
308.15 K | 1229.42
313.15 K | 1226.03
318.15 K | 1222.66
323.15 K | 1219.3
328.15 K | 1215.96
333.15 K | 1212.63
338.15 K | 1209.31
343.15 K | 1206.01

— the NIST ThermoML archive (doi:10.1021/je500079y)
